Laboratory results published in US9981909B2 (Janssen Pharmaceutica NV, priority 2008, dated 2018).
Counter-ions that a name gives are not always drawn. Like-named read-outs stand apart in the source and are kept apart here.

Tests used:
human SERT = human SERT (Homo sapiens (Human), UniProt P31645); assay: human SERT binding assay with [3H]-citalopram on HEK-293 membranes; conditions: read-out: hSERT binding Ki
rat 5-HT7 receptor = rat 5-HT7 receptor (Rattus norvegicus (Rat), UniProt P32305); assay: r5-HT7 binding assay, competitive radioligand binding with [3H]5-CT; conditions: rat 5-HT7 receptor, HEK-293 membranes
Sequence of rat 5-HT7 receptor (P32305 1-435): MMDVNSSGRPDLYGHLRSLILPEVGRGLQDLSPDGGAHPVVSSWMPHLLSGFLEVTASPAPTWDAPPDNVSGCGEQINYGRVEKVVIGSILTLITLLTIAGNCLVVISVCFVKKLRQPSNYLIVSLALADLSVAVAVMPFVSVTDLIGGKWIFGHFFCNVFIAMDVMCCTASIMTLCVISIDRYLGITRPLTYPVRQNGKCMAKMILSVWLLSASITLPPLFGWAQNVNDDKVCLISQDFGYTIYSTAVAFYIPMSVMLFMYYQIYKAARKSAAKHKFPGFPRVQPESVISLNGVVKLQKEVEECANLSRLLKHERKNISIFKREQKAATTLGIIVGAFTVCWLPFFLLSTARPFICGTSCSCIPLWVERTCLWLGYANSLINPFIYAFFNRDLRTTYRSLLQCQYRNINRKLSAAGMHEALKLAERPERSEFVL
Method in brief: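 Whole r5-HT7-transfected HEK-293 cells first received test compound for 10 min. They were then exposed to 100 nM 5-CT for 20 min before lysis and competitive immunoassay of cAMP. Affinity came from displacement of [3H]5-CT on membranes of the same recombinant line, expressed as Ki.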

r5-HT7 receptor = r5-HT7 receptor (Rattus norvegicus (Rat), UniProt P32305); assay: HitHunter cAMP assay, antagonist testing against 100 nM 5-CT; assay type: cell-based
Sequence of r5-HT7 receptor (P32305 1-435): as above
Experimental: (§1) Receptor binding was performed using membrane fractions prepared from the HEK-293 cell line recombinantly expressing rat 5-HT7 receptors (NCBI accession NM_022938). Compound affinity for the rat 5-HT7 receptor subtype was evaluated by competitive radioligand binding assays using 5-carboxamido[^3H]tryptamine ([^3H]5-CT) (Amersham Biosciences, cat. 90000403) detection. HitHunter™ cAMP assays are in-vitro based competitive immunoassays. The assay was performed on the HEK-293 cell line stably transfected with r5-HT7 receptor. Cells were pre-incubated with test compounds for 10 minutes. For antagonist testing, the cells were then challenged with 100 nM 5-CT for 20 minutes. Cells were then lysed and cAMP measured according to manufacturers protocol (Amersham, cat. NET791250UC) or [^3H]mesulergine (Amersham, cat. TRK1041). The assay was performed on membranes prepared from HEK-293 cells stably transfected with h5-HT6. Following centrifugation, membranes were resuspended and incubated for 60 min at room temperature with 1.7 nM [^3H]LSD in the presence of increasing concentration of test compounds. Nonspecific binding was defined in the presence of 10 μM clozapine (Tocris, cat. TRK1068). Homogenized HEK-293 membranes expressing the human SERT were incubated in 50 mM Tris-HCl (pH 7.5), 120 mM NaCl, 5 mM KCl with [^3H]-citalopram (3 nM) with or without test compounds. Nonspecific binding was determined in the presence of 10 μM fluoxetine. Radioactivity readouts and Ki values were performed as previously described for r5-HT7. […] Compounds were assayed in their free form or as salts, as indicated in the Examples section above.

h5-HT6 = h5-HT6 (Homo sapiens (Human), UniProt P50406); assay: h5-HT6 binding assay with [3H]LSD on HEK-293 membranes; conditions: h5-HT6, [3H]LSD, HEK-293 membranes; read-out: h5HT6 binding Ki
Sequence of h5-HT6 (P50406 whole entry): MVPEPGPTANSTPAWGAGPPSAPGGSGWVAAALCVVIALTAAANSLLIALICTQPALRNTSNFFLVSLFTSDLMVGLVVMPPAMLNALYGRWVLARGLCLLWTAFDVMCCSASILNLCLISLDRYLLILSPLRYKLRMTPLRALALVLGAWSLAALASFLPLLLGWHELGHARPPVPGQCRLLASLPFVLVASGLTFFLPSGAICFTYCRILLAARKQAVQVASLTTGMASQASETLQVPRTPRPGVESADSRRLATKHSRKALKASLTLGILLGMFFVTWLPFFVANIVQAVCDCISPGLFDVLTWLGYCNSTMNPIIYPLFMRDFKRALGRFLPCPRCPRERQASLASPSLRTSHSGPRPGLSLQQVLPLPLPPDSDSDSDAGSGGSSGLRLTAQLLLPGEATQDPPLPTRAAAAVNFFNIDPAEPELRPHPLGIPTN
Experimental: as §1

h5HT2C = h5HT2C (Homo sapiens (Human), UniProt P28335); assay: h5HT2C binding
Sequence of h5HT2C (P28335 33-458): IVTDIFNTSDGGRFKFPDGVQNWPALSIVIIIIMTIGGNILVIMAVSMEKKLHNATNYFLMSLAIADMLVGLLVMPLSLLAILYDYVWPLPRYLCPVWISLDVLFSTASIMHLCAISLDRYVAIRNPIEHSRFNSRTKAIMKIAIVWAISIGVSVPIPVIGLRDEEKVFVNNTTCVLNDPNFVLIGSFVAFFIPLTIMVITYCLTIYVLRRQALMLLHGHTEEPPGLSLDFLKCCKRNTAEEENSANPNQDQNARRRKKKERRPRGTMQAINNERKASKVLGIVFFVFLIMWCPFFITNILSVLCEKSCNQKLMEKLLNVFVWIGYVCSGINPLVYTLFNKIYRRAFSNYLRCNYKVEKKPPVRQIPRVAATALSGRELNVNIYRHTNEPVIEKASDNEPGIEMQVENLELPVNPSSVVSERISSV

h5HT2A = h5HT2A (Homo sapiens (Human), UniProt P28223); assay: h5HT2A binding
Sequence of h5HT2A (P28223 whole entry): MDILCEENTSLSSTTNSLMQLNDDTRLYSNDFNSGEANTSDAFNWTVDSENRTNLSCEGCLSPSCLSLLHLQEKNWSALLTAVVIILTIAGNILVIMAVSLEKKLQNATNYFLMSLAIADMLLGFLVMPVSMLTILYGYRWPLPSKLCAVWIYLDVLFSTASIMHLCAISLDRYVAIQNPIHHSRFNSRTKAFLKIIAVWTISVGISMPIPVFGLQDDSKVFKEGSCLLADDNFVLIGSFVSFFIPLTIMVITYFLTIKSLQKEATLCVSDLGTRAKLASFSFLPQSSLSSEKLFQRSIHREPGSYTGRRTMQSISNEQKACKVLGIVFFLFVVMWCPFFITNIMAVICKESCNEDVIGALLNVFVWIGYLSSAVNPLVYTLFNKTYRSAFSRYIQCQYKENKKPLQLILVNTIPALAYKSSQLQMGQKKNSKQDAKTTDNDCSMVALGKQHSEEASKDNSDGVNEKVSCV

h5HT2B = h5HT2B (Homo sapiens (Human), UniProt P41595); assay: h5HT2B binding
Sequence of h5HT2B (P41595 whole entry): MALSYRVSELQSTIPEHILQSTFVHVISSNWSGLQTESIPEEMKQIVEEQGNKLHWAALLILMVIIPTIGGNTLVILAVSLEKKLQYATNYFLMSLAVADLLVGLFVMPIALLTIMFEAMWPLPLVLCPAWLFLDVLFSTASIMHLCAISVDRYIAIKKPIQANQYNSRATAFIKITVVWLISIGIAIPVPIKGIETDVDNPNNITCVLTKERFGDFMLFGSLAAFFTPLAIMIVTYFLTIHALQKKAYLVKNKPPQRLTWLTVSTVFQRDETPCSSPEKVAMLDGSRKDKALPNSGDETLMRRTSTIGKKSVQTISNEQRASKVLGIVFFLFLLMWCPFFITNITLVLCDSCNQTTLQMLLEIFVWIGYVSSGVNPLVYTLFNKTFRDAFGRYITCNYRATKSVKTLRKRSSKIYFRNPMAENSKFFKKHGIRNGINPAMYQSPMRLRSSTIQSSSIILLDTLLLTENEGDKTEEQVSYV

[1] = antagonist testing, 100 nM 5-CT challenge, HEK-293 r5-HT7, read-out: R5HT7 cAMP pKb (converted)

Sequence of human SERT (P31645 whole entry): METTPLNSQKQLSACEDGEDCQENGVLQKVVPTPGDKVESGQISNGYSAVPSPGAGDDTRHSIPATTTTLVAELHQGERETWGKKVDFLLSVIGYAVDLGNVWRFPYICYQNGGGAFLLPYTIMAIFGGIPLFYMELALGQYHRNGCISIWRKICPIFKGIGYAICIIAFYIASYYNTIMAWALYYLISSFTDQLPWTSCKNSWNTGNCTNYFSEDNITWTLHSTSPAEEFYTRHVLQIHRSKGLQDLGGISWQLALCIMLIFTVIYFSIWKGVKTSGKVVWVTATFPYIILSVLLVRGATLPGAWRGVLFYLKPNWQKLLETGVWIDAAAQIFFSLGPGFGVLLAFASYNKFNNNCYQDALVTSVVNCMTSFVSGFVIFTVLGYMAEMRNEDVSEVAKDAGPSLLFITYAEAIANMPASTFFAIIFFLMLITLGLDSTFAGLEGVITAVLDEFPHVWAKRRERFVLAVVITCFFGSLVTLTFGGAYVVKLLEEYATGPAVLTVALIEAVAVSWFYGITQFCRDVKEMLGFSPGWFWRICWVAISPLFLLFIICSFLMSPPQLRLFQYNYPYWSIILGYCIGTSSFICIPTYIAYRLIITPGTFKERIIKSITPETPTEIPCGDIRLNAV

SMILES	Ki (human SERT) [nM]	Ki (rat 5-HT7 receptor) [nM]	Kb (r5-HT7 receptor; [1]) [nM]	Ki (h5-HT6) [nM]	Ki (h5HT2C) [nM]	Ki (h5HT2A) [nM]	Ki (h5HT2B) [nM]	Kb (r5-HT7 receptor) [nM]
CC(Oc1ccc(Cl)cc1OC1CNC1)c1ccc(C(F)(F)F)o1 (racemic) [Example 146, (±)-3-[5-Chloro-2-[1-(5-trifluoromethyl-furan-2-yl)-ethoxy]-phenoxy]-azetidine]	59	12	7.94	558				
FC(F)(F)c1ccnc(COc2ccc(Cl)cc2OC2CNC2)c1 [Example 81, 2-[2-(Azetidin-3-yloxy)-4-chloro-phenoxymethyl]-4-trifluoromethyl-pyridine]	1170	97			590	76	367	
Clc1ccc(OCC2CCCCC2)c(OC2CNC2)c1 [Example 73, 3-(5-Chloro-2-cyclohexylmethoxy-phenoxy)-azetidine trifluoroacetate]		23		12				251
FC(F)(F)c1ccc(OCc2ccc(C(F)(F)F)o2)c(OC2CNC2)c1 [Example 199, 3-[5-Trifluoromethyl-2-(5-trifluoromethyl-furan-2-ylmethoxy)-phenoxy]-azetidine]	128	18	39.8		526	103	1220	
Clc1ccc(OC2CCc3ccc(Cl)cc32)c(OC2CNC2)c1 (racemic) [Example 159, (±)-3-[5-Chloro-2-(6-chloro-indan-1-yloxy)-phenoxy]-azetidine]	21	17	7.94		196	6	41	
FC(F)(F)c1ccc(COc2ccc(Cl)cc2OC2CNC2)o1 [Example 54, 3-[5-Chloro-2-(5-trifluoromethyl-furan-2-ylmethoxy)-phenoxy]-azetidine]	28	6	7.94	77				
FC(F)(COc1ccc(Cl)cc1OC1CNC1)c1ccccc1 [Example 184, 3-[5-Chloro-2-(2,2-difluoro-2-phenyl-ethoxy)-phenoxy]-azetidine]	124	23	50.1		38	5	12	
CN1CC[C@@H](Oc2cc(Cl)ccc2OCc2cccc(Cl)c2)C1 [Example 59, (R)-3-[5-Chloro-2-(3-chloro-benzyloxy)-phenoxy]-1-methyl-pyrrolidine]	353	27	15.8	84				
COC(COc1ccc(Cl)cc1OC1CNC1)c1ccccc1 (stereo not shown) [Example 168, 3-[5-Chloro-2-(2-methoxy-2-phenyl-ethoxy)-phenoxy]-azetidine]		130			48	8	21	
Clc1ccc(O[C@@H]2CCNC2)c(OCc2ccccc2)c1 [Example 90, (R)-3-(2-Benzyloxy-4-chloro-phenoxy)-pyrrolidine]		920			160	20	83	
FC(F)(F)c1cccc(COc2ccc(Cl)cc2OC2CNC2)n1 [Example 79, 2-[2-(Azetidin-3-yloxy)-4-chloro-phenoxymethyl]-6-trifluoromethyl-pyridine]	3	26	50.1		290	69	248	
Clc1ccc(C2(COc3ccc(Cl)cc3OC3CNC3)CCC2)cc1 [Example 188, 3-[5-Chloro-2-[1-(4-chloro-phenyl)-cyclobutylmethoxy]-phenoxy]-azetidine]	65	34			143	8	28	
Fc1cccc(CCOc2ccc(Cl)cc2OC2CNC2)c1 [Example 191, 3-[5-Chloro-2-[2-(3-fluoro-phenyl)-ethoxy]-phenoxy]-azetidine]	7	8			53	8	11	
Clc1cccc(COc2cc(Cl)ccc2O[C@H]2CCNC2)c1 [Example 94, (S)-3-[4-Chloro-2-(3-chloro-benzyloxy)-phenoxy]-pyrrolidine]		> 2500			69	32	250	
Clc1ccc(OC2CCc3ccccc3C2)c(OC2CNC2)c1 (stereo not shown) [Example 164, 3-[5-Chloro-2-(1,2,3,4-tetrahydro-naphthalen-2-yloxy)-phenoxy]-azetidine]	8	33			181	24	30	
COc1cccc(CCOc2ccc(Cl)cc2OC2CNC2)c1 [Example 190, 3-[5-Chloro-2-[2-(3-methoxy-phenyl)-ethoxy]-phenoxy]-azetidine]	211	8			56	14	69	
Clc1ccc(CCOc2ccc(Cl)cc2OC2CNC2)cc1 [Example 192, 3-[5-Chloro-2-[2-(4-chloro-phenyl)-ethoxy]-phenoxy]-azetidine]	88	8			140	9	22	
FC(F)(F)c1ccc(OCc2ccccc2)c(OC2CNC2)c1 [Example 201, hydrochloride]	56	31	50.1		498	67	184	
Fc1ccc(CCOc2ccc(Cl)cc2OC2CNC2)cc1 [Example 193, 3-[5-Chloro-2-[2-(4-fluoro-phenyl)-ethoxy]-phenoxy]-azetidine]	9	5			71	11	14	
CN1CC[C@@H](Oc2ccc(Cl)cc2OCc2ccccc2)C1 [Example 91, (R)-3-(2-Benzyloxy-4-chloro-phenoxy)-1-methyl-pyrrolidine]		500			120	5	50	
COc1ccc(CCOc2ccc(Cl)cc2OC2CNC2)cc1 [Example 194, 3-[5-Chloro-2-[2-(4-methoxy-phenyl)-ethoxy]-phenoxy]-azetidine]	141	4			81	4	195	
FC(F)(F)c1ccc2c(c1)C(Oc1ccc(Cl)cc1OC1CNC1)CC2 (stereo not shown) [Example 160, 3-[5-Chloro-2-(6-trifluoromethyl-indan-1-yloxy)-phenoxy]-azetidine]	210	15	5.01		146	5	25	
Clc1cccc(COc2cc(Cl)ccc2O[C@@H]2CCNC2)c1 [Example 92, (R)-3-[4-Chloro-2-(3-chloro-benzyloxy)-phenoxy]-pyrrolidine]		260			110	14	28	
Cc1ccc2c(c1)C(Oc1ccc(Cl)cc1OC1CNC1)CC2 (racemic) [Example 158, (±)-3-[5-Chloro-2-(6-methyl-indan-1-yloxy)-phenoxy]-azetidine]	67	15	10		146	8	36	
C[C@@H](Oc1ccc(C(F)(F)F)cc1OC1CNC1)c1cccc(C(F)(F)F)c1 (stereo in doubt) [Example 200, 3-[5-Trifluoromethyl-2-[1-(3-trifluoromethyl-phenyl)-ethoxy]-phenoxy]-azetidine]	224	31	158		5000	605	7570	
Cc1nc(COc2ccc(Cl)cc2OC2CNC2)cs1 [Example 29, 4-[2-(Azetidin-3-yloxy)-4-chloro-phenoxymethyl]-2-methyl-thiazole]	27	83	126		1110	225	529	
CN1CC[C@@H](Oc2ccc(Cl)cc2OCc2cccc(Cl)c2)C1 [Example 93, (R)-3-[4-Chloro-2-(3-chloro-benzyloxy)-phenoxy]-1-methyl-pyrrolidine]		140			51	3	13	
